Source: patent US10144713B1, “Bis-cyclic guanidines as antibacterial agents” (UNIVERSITY OF SOUTH FLORIDA, priority 2017, dated 2018)

Tests used:
S. aureus ATCC 33591 = experiment: Thigh burden infection model in neutropenic mice; assay type: in vivo, CD-1 female mice; conditions: 5 mg/kg i.v. at 1 and 7 h after infection, thighs harvested at 25 h
Procedure: Neutropenic mice (n=4 per group) were inoculated in the posterior thigh muscles with S. aureus ATCC 33591 at 1×10^6 CFU per thigh and then treated with compounds 11 and 12 (5 mg/kg per dose) by i.v. bolus injection in the tail vein at 1 and 7 h after infection.
A thigh burden model was employed to evaluate the in vivo anti-infective activity of compounds 11 and 12, in which the thigh muscle of neutropenic mice was inoculated with S. aureus, followed by intravenous (i.v.) administration of corresponding compounds. All protocols and methods associated with animal experiments were approved by University of South Florida (USF) Institutional Animal Care and Use Committee. The in vivo experiment on the mouse model of the thigh burden infection with MRSA was conducted adapted from previously reported protocol. The CD-1 female mice which were 6 to 8 weeks old and around 25 g in weights were used for the study. Neutropenic Mice were induced by injecting cyclophosphamide (150 mg/kg) intraperitoneally twice at 4 and 1 days before bacterial inoculation. One MRSA colony from tryptic soy agar (TSA) cultures was allowed to grow in tryptic soy broth (TSB) overnight at 37° C., then 100 μL culture was withdrawn and diluted with TSB to a total volume of 4 mL, which was subsequently incubated at 37° C. for another 6 h. […] The formed colonies were counted to calculate CFU per thigh.

[1] = tested on: vancomycin-resistant Enterococcus faecalis (ATCC 700802); experiment: MIC against VRE; assay type: cell-based; conditions: Gram +; 16 h, 37° C.
Procedure: (§1) Minimum Inhibitory Concentrations (MICs) Against Bacteria.
(§2) The antimicrobial activity of the compounds was tested on the following six bacteria strains: K. pneumoniae (ATCC 13383), P. aeruginosa (ATCC27853), E. coli (ATCC 25922), vancomycin-resistant Enterococcus faecalis(ATCC 700802), Methicillin-resistant S. aureus (MRSA, ATCC 33591), Methicillin-resistant S. epidermidis (MRSE, RP62A). The procedures were followed as reported previously (Hancock et al., Immunobiology 2006, 211, 315-322). Briefly, a single colony of each bacterium was inoculated in 3 mL TSB medium and incubated overnight at 37° C. Then the bacteria culture was diluted at 1:100 and the bacteria were allowed to grow to mid-logarithmic phase. Next, 50 μL of 2-fold serial dilutions of compounds (0.1-25 μg/mL) were added the 96-well plate containing aliquots of 50 μL of bacteria suspension (1×10^6 CFU/mL) in each well. The mixture was incubated at 37° C. for 16 h, and their absorption at 600 nm wavelength was read on a Biotek Synergy HT microtiter plate reader. […] The experiments were repeated at least three times with duplicates each time. HC50 means the concentration causing 50% hemolysis.

E. coli = experiment: Time-kill study; assay type: cell-based; conditions: 12.5 μg/mL
Procedure: The killing activity was monitored for the first 2 h. The concentrations for compound 11 were 2×MIC, 4×MIC, and 8×MIC, respectively.
Time-kill studies were conducted to investigate the bacterial killing kinetics of compounds 11 and 12 by using E. Coli. Briefly, the bacteria […] grew to mid-logarithmic phase in TSB medium, from which the suspension (10^6 CFU/ml) was made. The suspension was incubated with different concentrations of 11 or 12 for 10 min, 30 min, 1 h and 2 h respectively. The mixtures were diluted by 10^2 to 10^4 fold and spread on TSB agar plates. After incubation at 37° C. overnight, the colonies on the plates were counted and plotted against the incubation time. […] Cell colonies were counted in agar plates at 12.5, 25, and 50 μg/mL. Compound 11 at the concentration of 12.5 or 25 μg/mL completely removed all bacteria in 2 hours, and at 50 μg/mL it completely removed bacteria in 0.5 hour. Compound 12 killed E. Coli completely in 0.5 hour at the concentration of 12.5 μg/mL.

[2] = tested on: K. pneumoniae (ATCC 13383); experiment: MIC against K. pneumoniae; assay type: cell-based; conditions: Klebsiella pneumoniae, ATCC13383; Gram −; 16 h, 37° C.
Procedure: as §1, §2

CCCCCCN1C(=N)N(CC(=O)Nc2cccc(NC(=O)CN3C[C@H](Cc4ccccc4)N(CCCCCC)C3=N)c2)C[C@@H]1Cc1ccccc1 [Compound 12]
decrease in colony-forming unit (CFU) per thigh (S. aureus ATCC 33591): 5 log10 CFU | MIC [1]: 0.75 µg/mL | time to completely remove all bacteria (E. coli): 0.5 h | MIC [2]: 0.75 µg/mL
